Data set [1] is described as follows: Caco-2 permeability assay. In kind it is in vitro ADME. As to conditions: human, heading: Caco-2 perm., direction not given. As for the experimental part:
Caco-2 permeability was evaluated using a cell-based assay with Caco-2 cells cultured on permeable membrane inserts. The test compound was added at 10 μM to the apical (donor) compartment, and samples were collected from the basolateral (receiver) compartment at 120 min. The test compound was also added at 10 μM to the basolateral (donor) compartment, and samples were collected from the apical (receiver) compartment at 120 min. The amount of the compound in both compartments was measured using mass spectrometry (LC-MS/MS). The permeability coefficient (Papp, nm/s) apical to basolateral and basolateral to apical, and an efflux ratio were calculated.

The target of data set [2] is T1, CYP2D6 (Homo sapiens, UniProt P10635).
T1 construct: purchased BD Gentest
T1 sequence (P10635 whole entry): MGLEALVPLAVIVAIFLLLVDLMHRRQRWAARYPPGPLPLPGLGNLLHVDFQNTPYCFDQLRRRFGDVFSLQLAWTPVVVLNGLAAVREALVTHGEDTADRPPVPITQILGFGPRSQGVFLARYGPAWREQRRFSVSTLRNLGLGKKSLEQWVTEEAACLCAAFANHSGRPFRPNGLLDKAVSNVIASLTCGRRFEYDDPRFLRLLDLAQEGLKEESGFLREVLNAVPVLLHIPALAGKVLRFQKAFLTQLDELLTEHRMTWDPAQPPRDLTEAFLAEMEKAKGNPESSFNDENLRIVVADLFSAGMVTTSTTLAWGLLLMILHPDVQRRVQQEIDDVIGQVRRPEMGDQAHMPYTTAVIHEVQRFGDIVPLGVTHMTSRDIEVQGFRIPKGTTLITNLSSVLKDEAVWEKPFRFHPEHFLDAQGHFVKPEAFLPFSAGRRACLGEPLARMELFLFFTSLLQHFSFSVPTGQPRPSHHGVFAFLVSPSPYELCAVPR
Description: CYP inhibition assay 2D6. In kind it is in vitro ADME. The method, then:
(§1) The half-maximal inhibitory concentration (IC50) for cytochrome P450 (CYP) enzymes was determined using an in vitro enzyme inhibition assay. Recombinant CYP enzymes or human liver microsomes from BD Gentest, in 0.1 M phosphate buffer pH 7.4, containing native CYP enzymes were incubated with the test compound at various concentrations (1, 3, 10 and 30 μM) and containing 0.5% DMSO and 0.1% BSA final concentrations. 1 mM of NADPH cofactor was added and the reaction was started by a rapid increase of temperature until 37°C.

Data set [3] addresses T2, human TRPM5 (Homo sapiens, UniProt Q9NZQ8).
T2 sequence (Q9NZQ8 1-1165): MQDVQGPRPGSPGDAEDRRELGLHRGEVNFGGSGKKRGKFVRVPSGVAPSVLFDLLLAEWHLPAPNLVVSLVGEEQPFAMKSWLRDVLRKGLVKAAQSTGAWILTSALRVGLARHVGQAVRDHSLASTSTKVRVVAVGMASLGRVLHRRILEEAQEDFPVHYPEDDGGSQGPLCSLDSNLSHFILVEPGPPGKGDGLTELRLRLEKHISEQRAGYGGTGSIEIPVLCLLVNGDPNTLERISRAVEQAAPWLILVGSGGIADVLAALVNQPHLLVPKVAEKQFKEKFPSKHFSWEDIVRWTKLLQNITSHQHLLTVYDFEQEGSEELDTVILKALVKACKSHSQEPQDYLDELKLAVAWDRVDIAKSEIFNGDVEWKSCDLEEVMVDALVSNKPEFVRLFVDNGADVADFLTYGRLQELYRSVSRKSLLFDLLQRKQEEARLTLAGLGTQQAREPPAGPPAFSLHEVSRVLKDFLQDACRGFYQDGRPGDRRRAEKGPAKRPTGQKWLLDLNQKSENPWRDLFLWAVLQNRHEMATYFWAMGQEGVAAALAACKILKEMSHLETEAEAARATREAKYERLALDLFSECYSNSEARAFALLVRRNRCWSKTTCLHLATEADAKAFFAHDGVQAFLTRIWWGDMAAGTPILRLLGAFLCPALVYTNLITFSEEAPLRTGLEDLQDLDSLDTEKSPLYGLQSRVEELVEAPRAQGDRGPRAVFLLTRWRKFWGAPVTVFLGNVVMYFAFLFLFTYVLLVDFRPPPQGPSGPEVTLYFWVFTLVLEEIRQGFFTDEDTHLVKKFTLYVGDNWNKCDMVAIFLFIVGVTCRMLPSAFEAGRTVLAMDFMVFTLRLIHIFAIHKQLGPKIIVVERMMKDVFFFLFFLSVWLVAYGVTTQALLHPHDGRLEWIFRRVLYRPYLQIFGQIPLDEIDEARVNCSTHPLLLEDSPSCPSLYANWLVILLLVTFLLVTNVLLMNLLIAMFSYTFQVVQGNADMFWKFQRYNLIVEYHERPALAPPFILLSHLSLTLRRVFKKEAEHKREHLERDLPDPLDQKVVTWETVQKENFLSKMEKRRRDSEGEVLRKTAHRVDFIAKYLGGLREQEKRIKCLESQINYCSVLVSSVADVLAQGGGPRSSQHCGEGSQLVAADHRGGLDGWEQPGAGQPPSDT
Description: QPatch automated patch clamp on TRPM5-expressing HEK293 cells. In kind it is cell-based. The conditions noted are these: hsTRPM5-expressing HEK293 cells. The source says:
The counter screening phase involved the inclusion of hsTRPM5-expressing HEK293 cells, as closest homologue, and the parental HEK293 cell line to evaluate selectivity. […] Based on categorization of biological activity, mass spectrometry quality control, and aspects of medicinal chemistry, we prioritized 144 selective hsTRPM4 compounds. These compounds were then subjected to automated patch clamp electrophysiology measurements (QPatch[58]) to evaluate their activity profiles and IC50 values (Figures 1A, S1, and S2).
QPatchHTX, an automated electrophysiology platform, was used in single hole mode. One day before use human TRPM4- or TRPM5-expressing HEK293 cells were seeded in a T75 flask at a density of 53k cells per cm^2 and at passages < 23. For QPatch assays, cells were harvested and re-suspended in SFM (Gibco, 11686029). The extracellular solution was (in mM): CaCl2 (7), MgCl2 (2), KCl (5), HEPES (10), NaCl (70), NMDG (70); pH 7.4 with NaOH. The intracellular solution was (in mM): HEPES (10), NMDG (100), NaCl (50), EGTA (20), MgCl2 (1), CaCl2 (21); pH 7.2 with HCl. After break-in, channels were consistently open and current through the channels could be observed at a voltage ramp from –100 mV to +100 mV over 500 ms. This protocol was repeated every 7 seconds. After saline and vehicle application, the channel was desensitized and residual current was used as baseline. FFA was used as reference compound and applied cumulatively with each concentration incubating at a minimum of 20 voltage protocol runs (140 seconds) with the current after addition of FFA being calculated as full block. […] Each compound was measured at least 3 time independently.

Data set [4] can be described thus: Microsome clearance (human). In kind it is in vitro ADME. As to conditions: human liver microsomes, 45 min, NADPH, read-out: Microsomes (h) clearance (converted). As for the experimental part:
(§2) Human or mouse liver microsomes were incubated with the test compound at a concentration of 1 μM for 45 min in the presence of cofactor (NADPH in excess). Samples were collected at various time points, and % remaining of test compound was determined using mass spectrometry (LC-MS/MS) to calculate hepatic clearance rate (L/h/kg).

Data set [5] is described as follows: Microsome clearance (mouse). As to conditions: mouse liver microsomes, 45 min, NADPH. It is filed as in vitro ADME. As for the experimental part:
as §2

Data set [6] is described as follows: Parallel Artificial Membrane Permeability Assay (PAMPA). The conditions noted are these: PAMPA; pH not given; read-out: PAMPA perm. In kind it is in vitro ADME. As for the experimental part: Parallel Artificial Membrane Permeability Assay (PAMPA) was performed using artificial lipid membrane layers to assess passive permeability of the test compound. Test compounds were diluted to 200 μM in system buffer at pH 5.0, 6.2 and 7.4. The solutions were filtered and 150 μL transferred to a High Sensitivity 96 well UV plate. This was analysed by UV as the reference plate. A 200 μL sample of the 200 μM solution was transferred to the ‘donor’ plate of the PAMPA pIon sandwich plate system. 200 μL of acceptor sink buffer was transferred to the ‘acceptor’ plate which had been previously treated with GIT-O lipid solution across the well filter. Donor and acceptor plates were sandwiched and kept in a humid environment at room temperature for 16 hours. On completion of the incubation the donor and acceptor plates were separated. 150 μL of solution was transferred from each of the donor and acceptor PAMPA sandwich plates into High Sensitivity 96 well UV plates for analysis by UV. at different time points. The concentration of the compound in the acceptor compartment was determined using mass spectrometry. The permeability coefficient (Papp) was calculated based on the rate of appearance of the compound in the acceptor compartment (nm/s).

In data set [7] the target is T3, CYP 2C19 (Homo sapiens, UniProt P33261).
T3 construct: purchased BD Gentest
T3 sequence (P33261 whole entry): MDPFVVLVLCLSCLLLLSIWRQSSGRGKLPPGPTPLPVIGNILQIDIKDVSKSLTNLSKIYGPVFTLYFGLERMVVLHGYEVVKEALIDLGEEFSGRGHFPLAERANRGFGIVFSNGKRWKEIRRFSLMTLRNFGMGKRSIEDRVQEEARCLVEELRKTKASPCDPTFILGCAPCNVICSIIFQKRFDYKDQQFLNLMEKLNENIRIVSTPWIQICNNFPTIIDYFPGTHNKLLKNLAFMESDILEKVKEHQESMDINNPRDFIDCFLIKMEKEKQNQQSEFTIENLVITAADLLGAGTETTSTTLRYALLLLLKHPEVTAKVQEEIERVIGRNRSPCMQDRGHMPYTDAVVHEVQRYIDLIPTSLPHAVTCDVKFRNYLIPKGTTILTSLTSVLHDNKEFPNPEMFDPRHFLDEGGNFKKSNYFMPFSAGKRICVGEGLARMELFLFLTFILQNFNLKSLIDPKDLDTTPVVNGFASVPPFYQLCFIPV
Briefly: CYP inhibition assay 2C19. In kind it is in vitro ADME. As for the experimental part:
as §1

Molecules are shown by their SMILES. pIC50: −log10 of the molar value.

`CNc1cccc(-c2ccccc2NCc2nc3ccccc3o2)c1` [CMP462] gave a Papp at 120 min, 10 μM in data set [1] of 233 nm/s. Further, the results for the pIC50 in data set [2], in data set [3] and in data set [7] were under 4.30, under 4.52 and 5.40, respectively. Moreover, the CLint scaled at 1 μM in data set [4] was 18.1 L/h/kg; in data set [5] it was 54 L/h/kg. Moreover, the Papp at 16 h, 200 μM in data set [6] turned out to be 250 nm/s.

The values above are taken from publication PMC11648915, “Identification and development of TRPM4 antagonists to counteract neuronal excitotoxicity” (iScience, 2024).
